Measured values from the CheMixHub viscosity set.

Test: xn = mol fraction of the nth substance listed

CCCCCCCCCO + CCCCO
viscosity [mPa·s]
Conditions	293.15 K	298.15 K	308.15 K	318.15 K
101 kPa, x2 = 0.05	–	8.644	6.182	4.486
101 kPa, x2 = 0.1	–	8.219	5.878	4.303
101 kPa, x2 = 0.15	–	7.816	5.598	4.121
101 kPa, x2 = 0.2	–	7.431	5.336	3.941
101 kPa, x2 = 0.25	–	7.062	5.089	3.764
101 kPa, x2 = 0.3	–	6.704	4.852	3.589
101 kPa, x2 = 0.35	–	6.356	4.623	3.418
101 kPa, x2 = 0.4	–	6.016	4.398	3.251
101 kPa, x2 = 0.45	–	5.681	4.177	3.088
101 kPa, x2 = 0.5	–	5.353	3.957	2.929
101 kPa, x2 = 0.55	–	5.029	3.738	2.774
101 kPa, x2 = 0.6	–	4.71	3.52	2.623
101 kPa, x2 = 0.65	–	4.397	3.303	2.477
101 kPa, x2 = 0.7	–	4.091	3.088	2.335
101 kPa, x2 = 0.75	–	3.793	2.877	2.198
101 kPa, x2 = 0.8	–	3.506	2.672	2.064
101 kPa, x2 = 0.85	–	3.234	2.476	1.933
101 kPa, x2 = 0.9	–	2.977	2.292	1.806
101 kPa, x2 = 0.95	–	2.742	2.125	1.681
101.33 kPa, x2 = 0.1608	9.868	–	–	–
101.33 kPa, x2 = 0.2186	–	7.719	–	–
101.33 kPa, x2 = 0.3832	7.621	–	–	–
101.33 kPa, x2 = 0.4166	–	6.168	–	–
101.33 kPa, x2 = 0.5129	–	5.48	–	–
101.33 kPa, x2 = 0.5372	6.237	–	–	–
101.33 kPa, x2 = 0.6368	–	4.634	–	–
101.33 kPa, x2 = 0.6674	5.169	–	–	–
101.33 kPa, x2 = 0.7995	4.296	–	–	–
101.33 kPa, x2 = 0.8253	–	3.486	–	–
101.33 kPa, x2 = 0.8991	3.529	–	–	–
101.33 kPa, x2 = 0.9103	–	3.019	–	–

Cc1cccc2ccccc12 + CC(CC(C)(C)C)CC(C)(C)CC(C)(C)C
viscosity [mPa·s], 100 kPa
Conditions	x1 = 0.125	x1 = 0.25	x1 = 0.375	x1 = 0.5	x1 = 0.625	x1 = 0.75	x1 = 0.875
293.15 K	3.46	3.24	3.09	2.97	2.88	2.9	3.02
303.15 K	2.75	2.61	2.47	2.38	2.32	2.33	2.4
313.15 K	2.29	2.14	2.02	1.95	1.9	1.91	1.97
323.15 K	1.86	1.76	1.7	1.64	1.6	1.61	1.64

CCCCCCCCCO + CCCCCCCO
viscosity [mPa·s], 101.8 kPa
Conditions	x2 = 0.1184	x2 = 0.3815	x2 = 0.5514	x2 = 0.7089	x2 = 0.9183
298.15 K	9.014	7.935	7.47	6.84	6.013
308.15 K	6.366	5.68	5.353	4.96	4.408
318.15 K	4.618	4.157	3.932	3.662	3.286

Cc1c[nH]cn1 + c1ccccc1
viscosity [mPa·s], 101 kPa
Conditions	303.15 K	323.15 K
x1 = 0.003559	0.568	–
x1 = 0.007082	0.584	–
x1 = 0.02102	0.631	0.479
x1 = 0.02167	0.636	0.48
x1 = 0.04045	0.729	0.533
x1 = 0.04194	0.748	0.543
x1 = 0.04196	0.749	–
x1 = 0.05112	0.796	0.574
x1 = 0.08708	1.004	–
x1 = 0.1079	1.123	–
x1 = 0.1551	1.496	–
x1 = 0.2018	1.869	–
x1 = 0.2491	2.344	–

C[NH+](C)CCO.O=C([O-])CC(=O)O + O
101 kPa, x2 = 0.88
Conditions	viscosity [mPa·s]
298 K	9.67
313 K	6.09

CC(N)=O + CCO
303.15 K, 101 kPa
Conditions	viscosity [mPa·s]
x1 = 0.0327	9.42
x1 = 0.0646	10
x1 = 0.0901	10.16
x1 = 0.1011	12.61

CCC1CCCCC1 + CCCCO
viscosity [mPa·s], 100 kPa
Conditions	x2 = 0.1001	x2 = 0.2	x2 = 0.3001	x2 = 0.4	x2 = 0.4999	x2 = 0.5997	x2 = 0.7	x2 = 0.8	x2 = 0.9
293.15 K	0.867	0.908	0.984	1.1	1.254	1.451	1.718	2.051	2.436
298.15 K	0.813	0.849	0.912	1.007	1.142	1.314	1.549	1.817	2.157
303.15 K	0.758	0.793	0.851	0.929	1.045	1.202	1.399	1.625	1.911
308.15 K	0.716	0.744	0.794	0.861	0.958	1.08	1.25	1.465	1.711
313.15 K	0.666	0.692	0.729	0.791	0.871	0.98	1.121	1.303	1.515
318.15 K	0.628	0.646	0.681	0.734	0.803	0.894	1.018	1.174	1.351
323.15 K	0.584	0.604	0.633	0.678	0.737	0.814	0.924	1.058	1.219

NCCNCCO.O=S(=O)([N-]S(=O)(=O)C(F)(F)F)C(F)(F)F.[Li+] + O
323.15 K, 101 kPa
Conditions	viscosity [mPa·s]
x1 = 0.0304	1.63
x1 = 0.06	3.61
x1 = 0.0997	7.57
x1 = 0.2003	27.72
x1 = 0.3009	65.11
x1 = 0.3955	114.4
x1 = 0.4975	184.4
x1 = 0.599	272.2
x1 = 0.7014	372.3
x1 = 0.8015	486.8
x1 = 0.8978	605.3

CCCCCCCC[n+]1ccn(C)c1.F[B-](F)(F)F + COC(C)=O
Conditions	viscosity [mPa·s]
298.15 K, 101 kPa, x1 = 0.7036	69.93

O=C([O-])CC(O)(CC(=O)[O-])C(=O)[O-].[Li+].[Li+].[Li+] + O
viscosity [mPa·s], 101 kPa
Conditions	298.15 K	308.15 K	318.15 K
x1 = 0.004	1.118	0.9013	0.7487
x1 = 0.007	1.39	1.112	0.9146
x1 = 0.01	1.784	1.415	1.155

CC1CCCCC1=O (stereo not drawn) + NC=O
viscosity [mPa·s], 100 kPa
Conditions	x1 = 0.1005	x1 = 0.1979	x1 = 0.2917	x1 = 0.4002	x1 = 0.5089	x1 = 0.6019	x1 = 0.6999	x1 = 0.8001	x1 = 0.9001
303.15 K	2.822	2.768	2.712	2.644	2.575	2.513	2.446	2.375	2.302
308.15 K	2.583	2.549	2.513	2.468	2.42	2.378	2.331	2.281	2.228
313.15 K	2.346	2.332	2.315	2.291	2.265	2.242	2.217	2.188	2.154

CCCCCCCCCO + CCCO
viscosity [mPa·s], 101 kPa
Conditions	298.15 K	308.15 K	318.15 K
x2 = 0.05	8.682	6.217	4.482
x2 = 0.1	8.263	5.92	4.293
x2 = 0.15	7.846	5.632	4.11
x2 = 0.2	7.432	5.351	3.929
x2 = 0.25	7.022	5.076	3.752
x2 = 0.3	6.618	4.806	3.575
x2 = 0.35	6.22	4.542	3.399
x2 = 0.4	5.83	4.282	3.223
x2 = 0.45	5.447	4.026	3.046
x2 = 0.5	5.073	3.774	2.869
x2 = 0.55	4.708	3.525	2.691
x2 = 0.6	4.352	3.279	2.514
x2 = 0.65	4.005	3.037	2.337
x2 = 0.7	3.668	2.798	2.161
x2 = 0.75	3.34	2.563	1.988
x2 = 0.8	3.022	2.332	1.819
x2 = 0.85	2.712	2.106	1.656
x2 = 0.9	2.412	1.884	1.5
x2 = 0.95	2.12	1.668	1.354

BrC(Br)(Br)Br + c1ccccc1
298.15 K, 101 kPa
Conditions	viscosity [mPa·s]
x1 = 0.1	0.8303
x1 = 0.2	1.122
x1 = 0.3	1.464
x1 = 0.4	1.839
x1 = 0.5	2.235
x1 = 0.6	2.636
x1 = 0.7	3.026
x1 = 0.8	3.391
x1 = 0.9	3.716
